Reference: patent US5190924A, “Peptide amides and amide dimers useful as muscle relaxants” (BOC Health Care, Inc., priority 1991, dated 1993)
Where two headings read alike, the source gives them in different places.

Columns and labels:
neuromuscular junction [1] = experiment: Mouse inclined screen grip strength test; assay type: in vivo; conditions: mice on 45° inclined screen; dose required to inhibit grip strength
Description: The first step, in mice, establishes a preliminary estimate of the potency and efficacy of the compounds. The animals were placed on a screen, inclined 45° to the horizontal. Effective doses caused the mice to lose their grip and slide down the inclined screen. […]

neuromuscular junction [2] = assay type: in vivo; conditions: for Neuromuscular Junction Blocking Activity (ED90), Rabbit: Table I, rabbit paw twitch; for ED90 (potency: dose required to depress twitch tension to 10% of control): Table II, anesthetized rabbits, marginal ear vein; for Duration (time from injection until train-of-four recovered to 75%) / HR (% change from pre-drug heart rate) / onset T85% (time from injection until 85% of maximal drug effect) / BP (% change of pre-drug blood pressure): rabbit
From the text: In a large series of similar telaxants, the rabbit dose is typically 125% of that in mice. The mechanism of action was also confirmed in this test by observing train-of-four and tetanus fade, post-tetanic potentiation of single twitches and administration of the anticholinesterase drug neostig- mine which reverses the relaxation. Reversibility, rapid onset and short duration are important factors to the anesthesiologist.
The following is a brief description of the methodologies used in rabbits to describe neuromuscular blocking activity of the subject compounds. A more detailed description of these methods is presented in "Microcomputer Use in Measuring Onset, Duration, and Recovery from Non-Depolarizing Skeletal Muscle Relaxants in Rabbits", P. D. Thut et al, Drug development Research 5:182, 1985.
Male New Zealand white rabbits weighing between 2.5 and 3.4 kg were anesthetized with pentobarbital (30 mg/kg) and placed on their backs upon a 40° C. water filled temperature regulation pad. Following tracheostomy, the lungs were mechanically ventilated at 28 breaths per minute with room air, using an open system delivering 200 mi/stroke. This ventilation maintained pCO2 at 38 mmHG and pO2 at 85 mmHg. Direct arterial blood pressure was measured from the right common carotid artery. The test compounds were administered through a canula placed in the marginal ear vein. Each foreleg was taped to a cushioned plate held in a femur clamp attached to the spinal board rack. The left centeral digit of each paw was connected to a force displacement transducer for measurement of muscle tension. Nerve stimulation was provided by pairs of pin electrodes placed on both sides of the ulnar nerve at the elbow of both forearms. The right ulnar nerve was stimulated at […] for 0.5 msec duration. The left ulnar nerve was similarly stimulated, every 15 seconds, with addition of interspersed trains-of-four and tetanizing stimuli. The parameters reported in Table II are: potency (ED90), which is the dose required to depress twitch tension to 10% of its control value; onset (T85%), which is the time from injection unit 85% of the maximal drug effect is achieved, duration, which is the time from injection until the train-of-four has recovered to 75%, blood pressure (BP), which is the percentage change of pre-drug blood pressure; and heart rate (HR), which is the percentage change from pre-drug heart rate.

[3] = equi-efficacious dose, arterial blood pressure

Structure (SMILES)	Neuromuscular Junction Blocking Activity (ED90), Mouse (neuromuscular junction [1]) [mg/kg]	Neuromuscular Junction Blocking Activity (ED90), Rabbit (neuromuscular junction [2]) [mg/kg]	ED90 (potency: dose required to depress twitch tension to 10% of control) (neuromuscular junction [2]) [mg/kg]	Duration (time from injection until train-of-four recovered to 75%) (neuromuscular junction [2]; equi-efficacious dose) [min]	HR (% change from pre-drug heart rate) (neuromuscular junction [2]; equi-efficacious dose) [% change]	onset T85% (time from injection until 85% of maximal drug effect) (neuromuscular junction [2]; equi-efficacious dose) [s]	BP (% change of pre-drug blood pressure) (neuromuscular junction [2]; [3]) [% change]	BP (% change of pre-drug blood pressure) (neuromuscular junction [2]; in vivo) [% change]	HR (% change from pre-drug heart rate) (neuromuscular junction [2]; in vivo) [% change]
C[N+](C)(C)C(Cc1ccccc1)C(=O)NCCCCCCNC(=O)C(Cc1ccccc1)[N+](C)(C)C.[I-].[I-] (stereo not drawn) [Compound A, Me3 N^+ -Phe-NH-(CH2)6 -NH-Phe-N^+ Me3 2I^-]	7.940	–	–	–	–	–	–	–	–
CC(C)CC(NC(=O)C(Cc1ccccc1)NC(=O)C(CC(C)C)[N+](C)(C)C)C(=O)NCCCCC[N+](C)(C)C.O=C([O-])C(F)(F)F.O=C([O-])C(F)(F)F (stereo not drawn) [Compound B, Me3 N^+ -Leu-Phe-Leu-NH-(CH2)5 -N^+ Me3 2(CF3 CO2)^=]	3.981	–	–	–	–	–	–	–	–
C[N+](C)(C)[C@@H](Cc1ccccc1)C(=O)NCCCCCCCCCCNC(=O)[C@H](Cc1ccccc1)[N+](C)(C)C [Compound C, bis-(N,N,N-trimethyl-L-phenylalanyl) -decane-1,10-diamide]	1.259	4.408	4.41	17.4	-0.80	37.60	-40.30	–	–
CC(C)CC(NC(=O)C(Cc1ccccc1)[N+](C)(C)C)C(=O)NCC[N+](C)(C)C.O=C([O-])C(F)(F)F.O=C([O-])C(F)(F)F (stereo not drawn) [Compound D, Me3 N^+ -Phe-Leu-NH-(CH2)2 -N^+ Me3 2(CF3 CO2)^=]	16.000	31.13	31.13	15.00	4.60	36.3	-28.30	–	–
CC(C)CC(NC(=O)C(Cc1ccccc1)NC(=O)C(CC(C)C)[N+](C)(C)C)C(=O)NCCCCCCC[N+](C)(C)C [Compound E, N,N,N-trimethyl-L-leucyl-L-phenylalanyl-L-Leucine-(7-trimethylammonium) heptylamide]	1.995	–	–	–	–	–	–	–	–
COc1ccc(CC2c3cc(OC)c(OC)cc3CC[N+]2(C)CCC(=O)OCCCCCOC(=O)CC[N+]2(C)CCc3cc(OC)c(OC)cc3C2Cc2ccc(OC)c(OC)c2)cc1OC (stereo not drawn) [atracurium]	0.631	0.050	0.05	14.30	–	126.90	–	-3.40	-1.00
CC(=O)O[C@H]1C[C@@H]2CC[C@@H]3[C@H](CC[C@@]4(C)[C@H]3C[C@H]([N+]3(C)CCCCC3)[C@@H]4OC(C)=O)[C@@]2(C)C[C@@H]1[N+]1(C)CCCCC1 [pancuronium]	–	–	0.02	32.50	0.00	147.50	2.70	–	–
CC(=O)O[C@H]1C[C@@H]2CC[C@@H]3[C@H](CC[C@@]4(C)[C@H]3C[C@H]([N+]3(C)CCCCC3)[C@@H]4OC(C)=O)[C@@]2(C)C[C@@H]1N1CCCCC1 [vecuronium]	0.025	0.020	0.02	16.80	-1.90	97.30	1.10	–	–
